Article PMC5971468, “Small molecules that inhibit the late stage of Munc13-4–dependent secretory granule exocytosis in mast cells” (The Journal of Biological Chemistry, 2018)

Experiments:
Munc13-4 [1] = target: T1, Munc13-4 (Homo sapiens, UniProt Q70J99); assay: SNARE-dependent liposome lipid-mixing FRET assay with purified Munc13-4 + Ca2+; liposome flotation binding assay; assay type: biochemical
T1 construct: gene UNC13D; His6-tagged human Munc13-4 protein produced in insect Sf9 cells

Munc13-4 [2] = target: T1, Munc13-4; assay: SNARE-dependent liposome lipid-mixing FRET assay with purified Munc13-4 + Ca2+; assay type: biochemical

T1 sequence (Q70J99 whole entry): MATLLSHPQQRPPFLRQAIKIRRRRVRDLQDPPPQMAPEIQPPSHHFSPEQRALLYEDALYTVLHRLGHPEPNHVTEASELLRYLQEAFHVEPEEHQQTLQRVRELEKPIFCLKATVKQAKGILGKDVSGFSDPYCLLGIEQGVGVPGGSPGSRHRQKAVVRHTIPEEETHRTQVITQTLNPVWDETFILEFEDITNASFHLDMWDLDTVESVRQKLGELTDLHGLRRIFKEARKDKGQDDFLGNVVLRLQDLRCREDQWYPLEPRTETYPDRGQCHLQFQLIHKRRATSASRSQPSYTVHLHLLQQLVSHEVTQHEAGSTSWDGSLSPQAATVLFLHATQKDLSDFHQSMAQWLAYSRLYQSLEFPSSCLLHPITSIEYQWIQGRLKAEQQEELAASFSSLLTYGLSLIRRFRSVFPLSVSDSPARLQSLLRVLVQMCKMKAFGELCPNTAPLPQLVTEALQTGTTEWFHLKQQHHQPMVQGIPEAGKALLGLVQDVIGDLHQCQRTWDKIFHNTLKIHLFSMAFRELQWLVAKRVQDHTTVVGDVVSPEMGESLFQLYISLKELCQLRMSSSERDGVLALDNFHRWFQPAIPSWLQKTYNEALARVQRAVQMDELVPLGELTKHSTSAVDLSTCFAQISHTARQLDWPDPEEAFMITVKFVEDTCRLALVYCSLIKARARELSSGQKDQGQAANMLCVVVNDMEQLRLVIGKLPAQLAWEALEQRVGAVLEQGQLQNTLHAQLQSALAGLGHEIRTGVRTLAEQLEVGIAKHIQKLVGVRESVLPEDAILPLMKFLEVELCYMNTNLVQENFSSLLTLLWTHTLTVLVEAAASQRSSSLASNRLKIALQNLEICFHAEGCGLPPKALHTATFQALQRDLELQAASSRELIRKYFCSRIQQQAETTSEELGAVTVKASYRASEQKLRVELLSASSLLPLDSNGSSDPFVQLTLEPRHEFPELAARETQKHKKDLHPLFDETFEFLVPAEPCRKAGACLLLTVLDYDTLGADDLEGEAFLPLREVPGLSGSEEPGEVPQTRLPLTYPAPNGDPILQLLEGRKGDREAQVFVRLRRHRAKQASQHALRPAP
T1 sequence (P32851 whole entry partner): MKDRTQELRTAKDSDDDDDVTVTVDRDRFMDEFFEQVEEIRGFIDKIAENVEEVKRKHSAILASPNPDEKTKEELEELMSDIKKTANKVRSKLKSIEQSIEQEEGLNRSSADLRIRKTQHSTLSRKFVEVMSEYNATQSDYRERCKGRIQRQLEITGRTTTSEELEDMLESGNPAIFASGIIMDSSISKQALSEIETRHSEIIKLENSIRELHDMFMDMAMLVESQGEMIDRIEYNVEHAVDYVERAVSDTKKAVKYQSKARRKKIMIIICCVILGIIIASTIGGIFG
T1 sequence (P60879 whole entry partner): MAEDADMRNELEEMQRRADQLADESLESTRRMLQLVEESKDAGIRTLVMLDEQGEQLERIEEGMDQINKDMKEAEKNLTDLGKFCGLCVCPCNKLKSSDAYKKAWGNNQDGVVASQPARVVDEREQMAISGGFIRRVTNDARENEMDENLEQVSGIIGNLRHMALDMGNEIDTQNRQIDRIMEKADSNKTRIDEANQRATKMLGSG
T1 sequence (P63044 2-116 partner): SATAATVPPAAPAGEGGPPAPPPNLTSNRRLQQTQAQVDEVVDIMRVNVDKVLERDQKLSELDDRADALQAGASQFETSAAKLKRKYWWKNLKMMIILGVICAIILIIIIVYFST

| Structure (SMILES) | IC50 (Munc13-4 [1]) [µM] | IC50 (Munc13-4 [2]) [µM] |
| --- | --- | --- |
| CCn1nc(C(=O)N(CCCN(C)C)c2nc3c(C)ccc(Cl)c3s2)cc1C [bexin-1] | ~5 |  |
| COc1ccc2sc(N(CCCN(C)C)C(=O)c3ccc(S(=O)(=O)N4CCCc5ccccc54)cc3)nc2c1 [bexin-3] |  | ~5 |
